The values below come from US8486962B2, “Antifungal agents” (F2G Ltd., priority 2005, dated 2013).

≈ marks a conversion by molar mass, not a printed value. Like-named read-outs stand apart in the source and are kept apart here.

Common to all, as to type: cell-based
One experiment concerns Aspergillus terreus. Description: MIC, YAG medium, Aspergillus terreus. The following applies: YAG medium; for MIC: Aspergillus terreus. In outline: (§1)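 MICs in mg/L are lowest drug levels suppressing growth (OD 485 nm) relative to drug-free wells: Aspergillus in YAG at >70%, 24 hrs; Candida albicans in buffered RPMI at >80%, 24-48 hrs. Both incubated at 35° C across 50-0.05 mg/L doubling dilutions.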

In a further experiment the test system is Aspergillus niger. Description: MIC, YAG medium, Aspergillus niger. Particulars: YAG medium; for MIC: Aspergillus niger. The method, boiled down:
as §1

The next experiment has as its system Aspergillus flavus. Description: MIC, YAG medium, Aspergillus flavus. Particulars: YAG medium; for MIC: Aspergillus flavus. The method, boiled down: as §1
Experiment [1] has as its system Aspergillus fumigatus AF210. Description: MIC, YAG medium, Aspergillus fumigatus AF210. Particulars: YAG medium; for MIC: Aspergillus fumigatus, AF210, read-out: MIC A Fum. 210. The method, boiled down:
as §1

Experiment [2] concerns Aspergillus fumigatus AF293. Description: MIC, YAG medium, Aspergillus fumigatus AF293. Particulars: YAG medium; for MIC: Aspergillus fumigatus, AF293, read-out: MIC A Fum. 293. In outline:
as §1

For `COc1cc(NC(=O)C(=O)c2c(-c3ccccc3)cc3ccccn23)cc(OC)c1OC` [Example 222, 2-Oxo-2-(2-phenyl-indolizin-3-yl)-N-(3,4,5-trimethoxy-phenyl)-acetamide], the MIC with Aspergillus terreus (read-out: MIC A Terreus 4) came out at 0.4 µg/mL (≈ 0.929 µM); with Aspergillus niger (read-out: MIC A Niger 1), 3.1 µg/mL (≈ 7.2 µM); in the experiment with Aspergillus flavus (read-out: MIC A Flavus 01), 0.05 µg/mL (≈ 0.116 µM); in experiment [1], 1.6 µg/mL (≈ 3.72 µM); in experiment [2], 1.6 µg/mL (≈ 3.72 µM).

Take `O=C(Nc1ccc(Cl)cc1Cl)C(=O)c1c(-c2cccnc2)cc2ccccn12` [Example 224, N-(2,4-Dichloro-phenyl)-2-oxo-2-(2-pyridin-3-yl-indolizin-3-yl)-acetamide]: the MIC stood at 0.1 µg/mL (≈ 0.244 µM) with Aspergillus terreus (read-out: MIC A Terreus 4); 0.2 µg/mL (≈ 0.487 µM) with Aspergillus niger (read-out: MIC A Niger 1); 0.05 µg/mL (≈ 0.122 µM) with Aspergillus flavus (read-out: MIC A Flavus 01); 6.25 µg/mL (≈ 15.2 µM) in experiment [1]; 6.25 µg/mL (≈ 15.2 µM) in experiment [2].

As for `CC(C)(C#N)c1ccc(NC(=O)C(=O)c2c(-c3cccnc3)cc3ccccn23)cc1` [Example 225, N-[4-(Cyano-dimethyl-methyl)-phenyl]-2-oxo-2-(2-pyridin-3-yl-indolizin-3-yl)-acetamide], the MIC in the experiment with Aspergillus terreus (read-out: MIC A Terreus 4) was 0.1 µg/mL (≈ 0.245 µM); in the experiment on Aspergillus niger (read-out: MIC A Niger 1), 3.1 µg/mL (≈ 7.59 µM); in the experiment on Aspergillus flavus (read-out: MIC A Flavus 01) it was 0.1 µg/mL (≈ 0.245 µM); in experiment [1] it was 3.1 µg/mL (≈ 7.59 µM); in experiment [2], 3.1 µg/mL (≈ 7.59 µM).

Take `COc1cc(NC(=O)C(=O)c2c(-c3cccnc3)cc3ccccn23)cc(OC)c1OC` [Example 226, 2-Oxo-2-(2-pyridin-3-yl-indolizin-3-yl)-N-(3,4,5-trimethoxy-phenyl)-acetamide]: the MIC was 3.1 µg/mL (≈ 7.19 µM) with Aspergillus terreus (read-out: MIC A Terreus 4); above 50 µg/mL with Aspergillus niger (read-out: MIC A Niger 1); 1.6 µg/mL (≈ 3.71 µM) in the experiment on Aspergillus flavus (read-out: MIC A Flavus 01); above 50 µg/mL in experiment [1]; above 50 µg/mL in experiment [2].

For the compound `O=C(Nc1cc(Cl)cc(Cl)c1)C(=O)c1c(-c2cccnc2)cc2ccccn12` [Example 227, N-(3,5-Dichloro-phenyl)-2-oxo-2-(2-pyridin-3-yl-indolizin-3-yl)-acetamide], the MIC with Aspergillus terreus (read-out: MIC A Terreus 4) was 0.05 µg/mL (≈ 0.122 µM); with Aspergillus niger (read-out: MIC A Niger 1), 1.6 µg/mL (≈ 3.9 µM); in the experiment on Aspergillus flavus (read-out: MIC A Flavus 01) it was 0.05 µg/mL (≈ 0.122 µM); in experiment [1] it was 0.8 µg/mL (≈ 1.95 µM); in experiment [2], 1.6 µg/mL (≈ 3.9 µM).

Consider `CN(C)c1ccc(NC(=O)C(=O)c2c(-c3cccnc3)cc3ccccn23)cc1` [Example 230, N-(4-Dimethylamino-phenyl)-2-oxo-2-(2-pyridin-3-yl-indolizin-3-yl)-acetamide], for which the MIC is 0.2 µg/mL (≈ 0.52 µM) in the experiment with Aspergillus terreus (read-out: MIC A Terreus 4); 3.1 µg/mL (≈ 8.06 µM) in the experiment on Aspergillus niger (read-out: MIC A Niger 1); 0.1 µg/mL (≈ 0.26 µM) in the experiment with Aspergillus flavus (read-out: MIC A Flavus 01); above 50 µg/mL in experiment [1]; above 50 µg/mL in experiment [2].

Consider `CC(C)(C#N)c1cccc(NC(=O)C(=O)c2c(-c3cccnc3)cc3ccccn23)c1` [Example 231, N-[3-(Cyano-dimethyl-methyl)-phenyl]-2-oxo-2-(2-pyridin-3-yl-indolizin-3-yl)-acetamide], for which the MIC in the experiment with Aspergillus terreus (read-out: MIC A Terreus 4) was determined as 0.1 µg/mL (≈ 0.245 µM); in the experiment on Aspergillus niger (read-out: MIC A Niger 1), 0.8 µg/mL (≈ 1.96 µM); with Aspergillus flavus (read-out: MIC A Flavus 01), 0.05 µg/mL (≈ 0.122 µM); in experiment [1] it was 0.8 µg/mL (≈ 1.96 µM); in experiment [2], 1.6 µg/mL (≈ 3.92 µM).

Turning to `COc1ccc(NC(=O)C(=O)c2c(-c3ccccc3)cc3c(C)cccn23)cc1` [Example 234, N-(4-Methoxy-phenyl)-2-(8-methyl-2-phenyl-indolizin-3-yl)-2-oxo-acetamide], the MIC in the experiment with Aspergillus terreus (read-out: MIC A Terreus 4) is 1.6 µg/mL (≈ 4.16 µM); in the experiment with Aspergillus niger (read-out: MIC A Niger 1), above 50 µg/mL; in the experiment with Aspergillus flavus (read-out: MIC A Flavus 01), above 50 µg/mL; in experiment [1], above 50 µg/mL; in experiment [2], above 50 µg/mL.

With `COc1ccc(NC(=O)C(=O)c2c(-c3cccc(C#N)c3)cc3ccccn23)cc1` [Example 236, 2-[2-(3-Cyano-phenyl)-indolizin-3-yl]-N-(4-methoxy-phenyl)-2-oxo-acetamide], the MIC with Aspergillus terreus (read-out: MIC A Terreus 4) is 0.05 µg/mL (≈ 0.126 µM); with Aspergillus niger (read-out: MIC A Niger 1), above 50 µg/mL; in the experiment with Aspergillus flavus (read-out: MIC A Flavus 01), 0.1 µg/mL (≈ 0.253 µM); in experiment [1] it was above 50 µg/mL; in experiment [2] it was above 50 µg/mL.

In the case of `COc1ccc(NC(=O)C(=O)c2c(-c3ccccc3)cc3cccc(C)n23)cc1` [Example 237, N-(4-Methoxy-phenyl)-2-(5-methyl-2-phenyl-indolizin-3-yl)-2-oxo-acetamide], the MIC in the experiment on Aspergillus terreus (read-out: MIC A Terreus 4) worked out at 0.4 µg/mL (≈ 1.04 µM); in the experiment with Aspergillus niger (read-out: MIC A Niger 1), 0.8 µg/mL (≈ 2.08 µM); with Aspergillus flavus (read-out: MIC A Flavus 01) it was 1.6 µg/mL (≈ 4.16 µM); in experiment [1], 3.1 µg/mL (≈ 8.06 µM); in experiment [2], 1.6 µg/mL (≈ 4.16 µM).

Regarding `COc1ccc(NC(=O)C(=O)c2c(-c3ccccc3)cc3ccc(OC)cn23)cc1` [Example 239, N-(4-Methoxy-phenyl)-2-(6-methoxy-2-phenyl-indolizin-3-yl)-2-oxo-acetamide], the MIC in the experiment on Aspergillus terreus (read-out: MIC A Terreus 4) was 0.05 µg/mL (≈ 0.125 µM); in the experiment on Aspergillus niger (read-out: MIC A Niger 1) it was 0.8 µg/mL (≈ 2 µM); with Aspergillus flavus (read-out: MIC A Flavus 01) it was 0.05 µg/mL (≈ 0.125 µM); in experiment [1], above 50 µg/mL; in experiment [2], 50 µg/mL (≈ 125 µM).

`CN(C)CCOc1cccc(NC(=O)C(=O)c2c(-c3ccccc3)cc3ccccn23)c1` [Example 240, N-[3-(2-Dimethylamino-ethoxy)-phenyl]-2-oxo-2-(2-phenyl-indolizin-3-yl)-acetamide]: the MIC in the experiment with Aspergillus terreus (read-out: MIC A Terreus 4) was 12.5 µg/mL (≈ 29.2 µM); in the experiment on Aspergillus niger (read-out: MIC A Niger 1), above 50 µg/mL; with Aspergillus flavus (read-out: MIC A Flavus 01), 12.5 µg/mL (≈ 29.2 µM); in experiment [1] it was above 50 µg/mL; in experiment [2] it was 50 µg/mL (≈ 117 µM).

For the compound `COc1ccc2cc(-c3ccccc3)c(C(=O)C(=O)Nc3ccc(N(C)C)cc3)n2c1` [Example 242, N-(4-Dimethylamino-phenyl)-2-(6-methoxy-2-phenyl-indolizin-3-yl)-2-oxo-acetamide], the MIC stood at 0.1 µg/mL (≈ 0.242 µM) with Aspergillus terreus (read-out: MIC A Terreus 4); 0.4 µg/mL (≈ 0.967 µM) in the experiment on Aspergillus niger (read-out: MIC A Niger 1); 0.05 µg/mL (≈ 0.121 µM) with Aspergillus flavus (read-out: MIC A Flavus 01); 0.8 µg/mL (≈ 1.93 µM) in experiment [1]; 0.8 µg/mL (≈ 1.93 µM) in experiment [2].

Regarding `O=C(C(=O)N1CCOCC1)c1c(-c2ccccc2)cc2ccccn12` [Example 300, 1-Morpholin-4-yl-2-(2-phenyl-indolizin-3-yl)-ethane-1,2-dione], the MIC is above 50 µg/mL with Aspergillus terreus (read-out: MIC A Terreus); 25 µg/mL (≈ 74.8 µM) in the experiment with Aspergillus niger (read-out: MIC A Niger); above 50 µg/mL in the experiment on Aspergillus flavus (read-out: MIC A Flavus); above 50 µg/mL in experiment [1]; above 50 µg/mL in experiment [2].

Consider `O=C(C(=O)N1CCCCCC1)c1c(-c2ccccc2)cc2ccccn12` [Example 301, 1-Azepan-1-yl-2-(2-phenyl-indolizin-3-yl)-ethane-1,2-dione], for which the MIC with Aspergillus terreus (read-out: MIC A Terreus) stood at 12.5 µg/mL (≈ 36.1 µM); in the experiment with Aspergillus niger (read-out: MIC A Niger) it was 25 µg/mL (≈ 72.2 µM); in the experiment on Aspergillus flavus (read-out: MIC A Flavus), 50 µg/mL (≈ 144 µM); in experiment [1] it was 25 µg/mL (≈ 72.2 µM); in experiment [2], 50 µg/mL (≈ 144 µM).

Take `CCN(C(=O)C(=O)c1c(-c2ccccc2)cc2ccccn12)c1ccccc1` [Example 302, N-Ethyl-2-oxo-N-phenyl-2-(2-phenyl-indolizin-3-yl)-acetamide]: the MIC in the experiment with Aspergillus terreus (read-out: MIC A Terreus) is 25 µg/mL (≈ 67.9 µM); with Aspergillus niger (read-out: MIC A Niger), above 50 µg/mL; with Aspergillus flavus (read-out: MIC A Flavus) it was above 50 µg/mL; in experiment [1], 25 µg/mL (≈ 67.9 µM); in experiment [2] it was 50 µg/mL (≈ 136 µM).

Regarding `Cc1c(NC(=O)C(=O)c2c(-c3ccccc3)cc3ccccn23)c(=O)n(-c2ccccc2)n1C` [Example 303, N-(1,5-Dimethyl-3-oxo-2-phenyl-2,3-dihydro-1-pyrazol-4-yl)-2-oxo-2-(2-phenyl-indolizin-3-yl)-acetamide], the “MIC A Terreus” value against Aspergillus terreus amounted to 25 µg/mL (≈ 55.5 µM). In the experiment with Aspergillus niger, the “MIC A Niger” value stood at 50 µg/mL (≈ 111 µM). In addition, the “MIC A Flavus” value against Aspergillus flavus amounted to 50 µg/mL (≈ 111 µM). Besides, in experiment [1], the “MIC A Fum. 210” value turned out to be 50 µg/mL (≈ 111 µM). For the same compound, in experiment [2], the “MIC A Fum. 293” value stood at 50 µg/mL (≈ 111 µM).

“N-(3-Methyl-3H-benzoimidazol-5-yl)-2-oxo-2-(2-phenyl-indolizin-3-yl)-acetamide and N-(1-Methyl-1H-benzoimidazol-5-yl)-2-oxo-2-(2-phenyl-indolizin-3-yl)-acetamide [Example 241]”: in the experiment with Aspergillus terreus, the “MIC A Terreus 4” value was found to be 12.5 µg/mL. Further, the “MIC A Niger 1” value in the experiment on Aspergillus niger stood at 12.5 µg/mL. For the same compound, the “MIC A Flavus 01” value in the experiment on Aspergillus flavus came to 0.8 µg/mL. The “MIC A Fum. 210” value in experiment [1] came to 12.5 µg/mL. The “MIC A Fum. 293” value in experiment [2] was determined as 12.5 µg/mL.
